Results as given in US12692302B2, “Uses of IL-13 antagonists for treating atopic dermatitis” (Genentech, Inc., priority 2016, dated 2026).

Test system: patients with persistent moderate to severe atopic dermatitis inadequately controlled by TCS
Experiment: Clinical Study I (phase II, lebrikizumab + TCS vs placebo + TCS): efficacy outcomes
Type: in vivo, human
Details: for Mean % Change in % BSA Affected / Mean % Change in EASI / Mean % Change in Pruritus VAS / Mean % Change in SCORAD / Mean % Change in Sleep VAS / Mean Absolute Change in IGA: screening to baseline (2-week TCS run-in, before study drug)
Description: Clinical Study I was a phase II, randomized, double-blind, placebo-controlled study to evaluate the safety and efficacy of lebrikizumab in patients (age 18-75) with persistent moderate to severe atopic dermatitis that is inadequately controlled by topical corticosteroids (TCS). In this Study, lebrikizumab was tested in combination with TCS.
The inclusion criteria included the following: age 18 to 75 years; AD diagnosed by the Hanifin/Rajka criteria and that had been present for at least 1 year at screening; moderate to severe AD as graded by the Rajka/Langeland criteria at screening; history of inadequate response to a 1 month (within the 3 months prior to the screening visit) treatment regimen of at least daily TCS and regular emollient for treatment of AD; EASI score 14 at screening and end of the run-in period (Visit 3), IGA score 3 (5-point scale) at screening and end of the run-in period (Visit 3); AD involvement of 10% body surface area (BSA) at screening; and Pruritus VAS score (measured as part of the SCORAD) of 3 at screening.
Run-in Period. Following the screening visit, eligible patients entered a 2-week run-in period (Days −14 to −1) during which a protocol-specified topical therapy regimen was initiated. On the first day of the run-in period (Day −14) patients received TCS for use throughout the run-in period. Patients were required to apply the following topical therapy regimen daily: emollient to all xerotic skin surfaces, at least once daily; TCS cream consisting of medium potency TCS (triamcinolone acetonide 0.1%), two times per day, only to all active skin lesions.
Treatment Period. […] The plan was to randomize approximately 200 patients (1:1:1:1) to one of the following four treatment groups (see FIG. 1): (1) Group 1: lebrikizumab 250 mg administered subcutaneously (SC) single dose (Day 1) followed by 2 placebo doses (at Week 4 and at Week 8) for a total of 3 doses+TCS cream; (2) Group 2: lebrikizumab 125 mg SC single dose (Day 1) followed by 2 placebo doses (Week 4 and Week 8) for a total of 3 doses+TCS cream; (3) Group 3: lebrikizumab 125 mg SC every 4 weeks (Q4W) for a total of 3 doses+TCS cream; and (4) Group 4: placebo SC Q4W for a total of 3 doses+TCS cream. Three active doses were included to characterize both exposure-response relationships and dosing frequency requirements.
Patients randomized to these four study treatment groups received study drug (lebrikizumab or placebo SC) in combination with TCS. Throughout the 12-week treatment period these patients continued to apply emollient at least once daily and triamcinolone acetonide 0.1% cream as described in the run-in period (two times per day to all active skin lesions on the body). […] Patients recorded their use of topical creams and responded to PRO-related questions using a hand held eDiary throughout the treatment period. At each study visit the patient was required to bring their TCS containers to the study site to be weighed.
Efficacy Outcome Measures. The primary efficacy outcome measure was the percentage of patients achieving EASI-50 (a 50% reduction in EASI score from baseline) at Week 12. […]

[1] = 125 mg single dose + TCS BID (n = 52), Week 12
[2] = 250 mg single dose + TCS BID (n = 53), Week 12

With “lebrikizumab: monoclonal humanized anti-IL-13 IgG4 antibody; heavy chain SEQ ID NO: 11, light chain SEQ ID NO: 12; formulated at 125 mg/mL in prefilled syringe” the “% change from baseline in ADIQ, placebo-corrected change” value [1] was −4.9%, the “% change from baseline in Pruritus VAS (from SCORAD), mean” value [1] was −34.92% and the “% change from baseline in Pruritus VAS (from SCORAD), placebo-corrected change” value [1] was −7.38%. For the same substance, the “% change from baseline in Sleep Loss VAS (from SCORAD), mean” value [1] was −53.1%, the “% change from baseline in Sleep Loss VAS (from SCORAD), placebo-corrected change” value [1] was −30.6% and the “DLQI, % change from baseline, adjusted mean” value [1] was −34.33%. The “DLQI, % change from baseline, Δ vs placebo” value [1] was −0.76%, the “SCORAD score % change from baseline, adjusted mean” value [1] was −38.7% and the “SCORAD score % change from baseline, Δ vs placebo” value [1] was −3.3%. For the same substance, the “Total % BSA affected, % change from baseline, adjusted mean” value [1] was −45.2%, the “Total % BSA affected, % change from baseline, Δ vs placebo” value [1] was 2.2% and the “Change from baseline Pruritus VAS, mean % change” value (250 mg SD + TCS, Week 20) was −30.25%. For the same substance, the “Change from baseline Pruritus VAS, placebo-corrected differences” value (250 mg SD + TCS, Week 20) was −8.79%, the “Change from baseline in EASI, mean % change” value (250 mg SD + TCS, Week 20) was −55.9% and the “Change from baseline in EASI, placebo-corrected differences” value (250 mg SD + TCS, Week 20) was −1.88%. The “Change from baseline in the % BSA affected, mean % change” value (250 mg SD + TCS, Week 20) was −46.4%, the “Change from baseline in the % BSA affected, placebo-corrected differences” value (250 mg SD + TCS, Week 20) was 5.56% and the “Patients maintaining EASI-50 response at Weeks 12 and 20, %” value (250 mg SD + TCS, Week 20) was “(78.4) %”. The “Patients maintaining EASI-50 response at Weeks 12 and 20, placebo-corrected differences” value (250 mg SD + TCS, Week 20) was 5.65%, the “Patients maintaining EASI-75 response at Weeks 12 and 20, %” value (250 mg SD + TCS, Week 20) was “(61.5) %” and the “Patients maintaining EASI-75 response at Weeks 12 and 20, placebo-corrected differences” value (250 mg SD + TCS, Week 20) was −5.13%. The “Patients maintaining IGA 0/1 response at Weeks 12 and 20, %” value (250 mg SD + TCS, Week 20) was “(60.0) %”, the “Patients maintaining IGA 0/1 response at Weeks 12 and 20, placebo-corrected differences” value (250 mg SD + TCS, Week 20) was 0% and the “Patients maintaining SCORAD-50 response at Weeks 12 and 20, %” value (250 mg SD + TCS, Week 20) was “(64.0) %”. The “Patients maintaining SCORAD-50 response at Weeks 12 and 20, placebo-corrected differences” value (250 mg SD + TCS, Week 20) was −14.60%, the “% Patients achieving EASI-50” value [2] was “(69.8) %” and the “% Patients achieving EASI-50, placebo-corrected changes” value [2] was 7.6%. The “% Patients achieving EASI-75” value [2] was “(49.1) %”, the “% Patients achieving EASI-75, placebo-corrected changes” value [2] was 15.1% and the “% Patients achieving IGA 0/1” value [2] was “(28.3) %”. For the same substance, the “% Patients achieving IGA 0/1, placebo-corrected change” value [2] was 9.4%, the “% Patients achieving SCORAD-50” value [2] was 47.2% and the “% Patients achieving SCORAD-50, placebo-corrected change” value [2] was 20.8%. The “% Patients achieving SCORAD-75” value [2] was “(11.3) %”, the “% change from baseline in AD Specific health-related QoL - ADIQ, mean” value [2] was −30.8% and the “% change from baseline in ADIQ, placebo-corrected change” value [2] was −1.8%. For the same substance, the “% change from baseline in Pruritus VAS (from SCORAD), mean” value [2] was −32.82%, the “% change from baseline in Pruritus VAS (from SCORAD), placebo-corrected change” value [2] was −5.28% and the “% change from baseline in Sleep Loss VAS (from SCORAD), mean” value [2] was −47.2%. The “% change from baseline in Sleep Loss VAS (from SCORAD), placebo-corrected change” value [2] was −24.6%, the “DLQI, % change from baseline, adjusted mean” value [2] was −40.67% and the “DLQI, % change from baseline, Δ vs placebo” value [2] was −7.09%. The “SCORAD score % change from baseline, adjusted mean” value [2] was −42.6%, the “SCORAD score % change from baseline, Δ vs placebo” value [2] was −7.2% and the “Total % BSA affected, % change from baseline, adjusted mean” value [2] was −38.6%. For the same substance, the “Total % BSA affected, % change from baseline, Δ vs placebo” value [2] was 8.8%, the “% Patients achieving SCORAD-50” value (250 mg single dose + TCS BID (n = 53), Week 12, listed as Lebri) was “(47.2) %” and the “Mean % Change in % BSA Affected” value (125 mg Q4W group (n = 51)) was −9.3%. The “Mean % Change in EASI” value (125 mg Q4W group (n = 51)) was −9.1%, the “Mean % Change in Pruritus VAS” value (125 mg Q4W group (n = 51)) was −15.2% and the “Mean % Change in SCORAD” value (125 mg Q4W group (n = 51)) was −7.7%. For the same substance, the “Mean % Change in Sleep VAS” value (125 mg Q4W group (n = 51)) was −12.9%, the “Mean Absolute Change in IGA” value (125 mg Q4W group (n = 51)) was −0.14 and the “Mean % Change in % BSA Affected” value (125 mg SD group (n = 52)) was −17.1%. For the same substance, the “Mean % Change in EASI” value (125 mg SD group (n = 52)) was −14.3%, the “Mean % Change in Pruritus VAS” value (125 mg SD group (n = 52)) was −23.8% and the “Mean % Change in SCORAD” value (125 mg SD group (n = 52)) was −12.2%. The “Mean % Change in Sleep VAS” value (125 mg SD group (n = 52)) was −29.0%, the “Mean Absolute Change in IGA” value (125 mg SD group (n = 52)) was −0.21 and the “Mean % Change in % BSA Affected” value (250 mg SD group (n = 53)) was −4.3%. The “Mean % Change in EASI” value (250 mg SD group (n = 53)) was −10.2%, the “Mean % Change in Pruritus VAS” value (250 mg SD group (n = 53)) was −15.5% and the “Mean % Change in SCORAD” value (250 mg SD group (n = 53)) was −9.9%. For the same substance, the “Mean % Change in Sleep VAS” value (250 mg SD group (n = 53)) was −8.1% and the “Mean Absolute Change in IGA” value (250 mg SD group (n = 53)) was −0.17.
